Measurements reported in the supplement of paper PMC5908809.

Assays:
NK-YS (IL-2 2.5 ng/mL) [1] = test: drug sensitivity score (DSS) (DSS units); higher = more sensitive; extreme values may be limits of the assay; conditions: 72 h
[2] = system: normal primary NK cells, pool 2 (3 donors) (IL-2 2.5 ng/mL); test: as above; conditions: 72 h
NK-92 (IL-2 2.5 ng/mL) [3] = test: as above; conditions: 72 h
KAI3 (IL-2 2.5 ng/mL) [4] = test: as above; conditions: 72 h
YT (IL-2 2.5 ng/mL) [5] = test: as above; conditions: 72 h
[6] = system: normal primary NK cells, pool 1 (3 donors), resting (IL-2 0 ng/mL); test: as above; conditions: 72 h
NKL (IL-2 2.5 ng/mL) [7] = test: as above; conditions: 72 h
[8] = system: normal primary NK cells, pool 1 (3 donors) (IL-2 2.5 ng/mL); test: as above; conditions: 72 h
[9] = system: normal primary NK cells, pool 3 (3 donors) (IL-2 2.5 ng/mL); test: as above; conditions: 72 h
IMC-1 (IL-2 20 ng/mL) [10] = test: as above; conditions: 72 h
SNK-6 (IL-2 2.5 ng/mL) [11] = test: as above; conditions: 72 h
KHYG-1 (IL-2 2.5 ng/mL) [12] = test: as above; conditions: 72 h
DERL-7 (IL-2 2.5 ng/mL) [13] = test: as above; conditions: 72 h
[14] = system: normal NK cells expanded with K562-aAPC; test: as above; conditions: 72 h; IL-2 2.5 ng/mL
Protocol: (§1)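 Drug sensitivity and resistance testing on K562-aAPC-expanded normal NK cells: 5 concentrations (10-fold steps over a 10,000-fold range), 72 h at 37 °C, viability by CellTiter-Glo normalised to DMSO and benzethonium chloride controls; DSS from the fitted curve.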

NK-YS (IL-2 2.5 ng/mL) [15] = test: percent inhibition of viability; higher = more inhibition; conditions: 72 h
[16] = system: normal primary NK cells, pool 2 (3 donors) (IL-2 2.5 ng/mL); test: as above; conditions: 72 h
NK-92 (IL-2 2.5 ng/mL) [17] = test: as above; conditions: 72 h
KAI3 (IL-2 2.5 ng/mL) [18] = test: as above; conditions: 72 h
YT (IL-2 2.5 ng/mL) [19] = test: as above; conditions: 72 h
[20] = system: normal primary NK cells, pool 1 (3 donors), resting (IL-2 0 ng/mL); test: as above; conditions: 72 h
NKL (IL-2 2.5 ng/mL) [21] = test: as above; conditions: 72 h
[22] = system: normal primary NK cells, pool 1 (3 donors) (IL-2 2.5 ng/mL); test: as above; conditions: 72 h
[23] = system: normal primary NK cells, pool 3 (3 donors) (IL-2 2.5 ng/mL); test: as above; conditions: 72 h
IMC-1 (IL-2 20 ng/mL) [24] = test: as above; conditions: 72 h
SNK-6 (IL-2 2.5 ng/mL) [25] = test: as above; conditions: 72 h
KHYG-1 (IL-2 2.5 ng/mL) [26] = test: as above; conditions: 72 h
DERL-7 (IL-2 2.5 ng/mL) [27] = test: as above; conditions: 72 h
[28] = system: normal NK cells expanded with K562-aAPC; test: as above; conditions: 72 h, IL-2 2.5 ng/mL
Protocol: as §1

C=C1C[C@@H]2[C@H](CC[C@]3(C)C(=O)CC[C@@H]23)[C@@]2(C)C=CC(=O)C=C12 [Exemestane] (max concentration tested 10000 nM)
Conditions | drug sensitivity score
DERL-7 (IL-2 2.5 ng/mL) [13] | 2.16
IMC-1 (IL-2 20 ng/mL) [10] | 0.35
KAI3 (IL-2 2.5 ng/mL) [4] | 2.96
KHYG-1 (IL-2 2.5 ng/mL) [12] | 2.88
NK-92 (IL-2 2.5 ng/mL) [3] | 3.74
NK-YS (IL-2 2.5 ng/mL) [1] | 0.88
NKL (IL-2 2.5 ng/mL) [7] | 0.48
SNK-6 (IL-2 2.5 ng/mL) [11] | 5.29
YT (IL-2 2.5 ng/mL) [5] | 0
[2] | 2.8
[6] | 4.06
[8] | 1.99
[9] | 1.49
[14] | 3.07

percent inhibition of viability [%]
Conditions | 1 nM | 10 nM | 100 nM | 1000 nM | 10000 nM
DERL-7 (IL-2 2.5 ng/mL) [27] | -0.04 | 2.07 | -0.5 | 8.21 | 26.2
IMC-1 (IL-2 20 ng/mL) [24] | -4.22 | 2.93 | 0.3 | 7.31 | 12.9
KAI3 (IL-2 2.5 ng/mL) [18] | 0.1 | 9.66 | 6.63 | 5.02 | 42
KHYG-1 (IL-2 2.5 ng/mL) [26] | -6.37 | 13.7 | -2.18 | 12.3 | 29.8
NK-92 (IL-2 2.5 ng/mL) [17] | -2.32 | 9.27 | 5.72 | 8.66 | 44.8
NK-YS (IL-2 2.5 ng/mL) [15] | -2.57 | 3.99 | 3.16 | 2.81 | 18.9
NKL (IL-2 2.5 ng/mL) [21] | -3.13 | 9.66 | -3.12 | 3.19 | 14.4
SNK-6 (IL-2 2.5 ng/mL) [25] | -1.73 | 3.81 | 3.19 | 27.1 | 40.9
YT (IL-2 2.5 ng/mL) [19] | -3.57 | 11.7 | -3.54 | 1.89 | 7.92
[16] | -7.91 | -3.9 | 6.14 | 2.28 | 47.6
[20] | 3.47 | -11.3 | -6.56 | -1.56 | 75.8
[22] | -3.16 | -4.6 | 2.49 | -8.32 | 47.6
[23] | -5.22 | -9.04 | 7.22 | 1.19 | 30.5
[28] | -3.29 | -0.41 | 3.42 | 12.7 | 35.6

Nc1nc(F)nc2c1ncn2[C@@H]1O[C@H](CO)[C@@H](O)[C@@H]1O [Fludarabine] (max concentration tested 10000 nM)
Conditions | drug sensitivity score
DERL-7 (IL-2 2.5 ng/mL) [13] | 3.52
IMC-1 (IL-2 20 ng/mL) [10] | 2.89
KAI3 (IL-2 2.5 ng/mL) [4] | 7.22
KHYG-1 (IL-2 2.5 ng/mL) [12] | 5.42
NK-92 (IL-2 2.5 ng/mL) [3] | 9.32
NK-YS (IL-2 2.5 ng/mL) [1] | 0.32
NKL (IL-2 2.5 ng/mL) [7] | 12.3
SNK-6 (IL-2 2.5 ng/mL) [11] | 7.06
YT (IL-2 2.5 ng/mL) [5] | 0
[2] | 10.8
[6] | 13.5
[8] | 10.6
[9] | 9.07
[14] | 13.3

percent inhibition of viability [%]
Conditions | 1 nM | 10 nM | 100 nM | 1000 nM | 10000 nM
DERL-7 (IL-2 2.5 ng/mL) [27] | -6.18 | -6.69 | 2.47 | -9.31 | 74.8
IMC-1 (IL-2 20 ng/mL) [24] | -8.37 | 2.44 | -0.32 | 0.25 | 53.5
KAI3 (IL-2 2.5 ng/mL) [18] | -10.9 | -7.43 | -11.6 | 10.9 | 97.9
KHYG-1 (IL-2 2.5 ng/mL) [26] | -3.8 | -1.74 | -3.07 | 5.53 | 82.9
NK-92 (IL-2 2.5 ng/mL) [17] | -5.82 | -19.1 | -10.8 | 24.7 | 101
NK-YS (IL-2 2.5 ng/mL) [15] | -7.11 | -1.12 | -0.69 | 4.05 | 12.8
NKL (IL-2 2.5 ng/mL) [21] | -18.8 | -16.5 | -2.27 | 56.9 | 100
SNK-6 (IL-2 2.5 ng/mL) [25] | 18.4 | 33.8 | 24.8 | 32.5 | 28
YT (IL-2 2.5 ng/mL) [19] | -2.12 | 0.54 | 0.43 | -2.19 | 4.14
[16] | -15.8 | -12 | 5.13 | 47.7 | 93
[20] | -2.66 | -18.7 | 10.1 | 65.3 | 89.5
[22] | 6.23 | -6.78 | 8.3 | 45.7 | 93.6
[23] | -13.2 | -7.62 | 3.81 | 29.6 | 90.2
[28] | -4.55 | -1.76 | -0.86 | 67.3 | 100
